According to patent US20250388593A1 (MITSUBISHI TANABE PHARMA CORPORATION, priority 2023, published 2025):

Target: CRBN truncate (318-426) (Homo sapiens (Human), UniProt Q96SW2)
Experiment: Measurement of molecular interactions using surface plasmon resonance (SPR), Biacore T200
Format: binding
Conditions: 25° C., immobilized CRBN truncate, upper limit of measurement 200 μM
Description: The instrument used was the Biacore T200 (manufactured by Cytiva). The CRBN truncate (318-426) was obtained by expressing a construct with an Avi-tag added at the C-terminus. The sensor chip used was Sensor Chip SA (manufactured by Cytiva). The CRBN truncate was immobilized using the affinity between SA (streptavidin) on the sensor chip and the Avi-tag. The running buffer was a mixture of 10 mM HEPES pH 7.5, 150 mM NaCl, 1 mM TCEP, 0.005% Tween 20, and 2% DMSO. […] Contact time and dissociation time were set at 60 seconds and 120 seconds, respectively.

Chain of CRBN truncate (318-426) (Q96SW2 318-426): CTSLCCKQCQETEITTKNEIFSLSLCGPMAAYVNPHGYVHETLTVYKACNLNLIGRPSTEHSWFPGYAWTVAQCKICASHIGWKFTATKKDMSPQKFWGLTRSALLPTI

`CC(C)(C)OC(=O)N1CCN(C2CCCC(=O)NC2=O)C(=O)C1=O` (stereo not drawn) [Example 29-2, tert-Butyl 4-(2,7-dioxoazepan-3-yl)-2,3-dioxopiperazine-1-carboxylate] and `CC(C)(C)OC(=O)c1ccc(N2CCN(C3CCCC(=O)NC3=O)C(=O)C2)nc1` (stereo not drawn) [Example 30, tert-Butyl 6-[4-(2,7-dioxoazepan-3-yl)-3-oxopiperazin-1-yl]pyridine-3-carboxylate] cannot be ordered by Kd: ≥ 100 µM for the first, ≥ 100 µM for the second.

`CC1(CN2C(=O)c3ccccc3C2=O)CCCC(=O)NC1=O` (stereo not drawn) [Example 31, 2-[(3-Methyl-2,7-dioxoazepan-3-yl)methyl]isoindole-1,3-dione] and `COC(=O)c1cccc(CN2CCC3(CCCC(=O)NC3=O)C2)c1` (stereo not drawn) [Example 33, Methyl 3-[(6,8-dioxo-2,7-diazaspiro[4.6]undecan-2-yl)methyl]benzoate] cannot be ordered by Kd: 50 to 100 µM for the first, ≥ 100 µM for the second.

`CC(C)(C)OC(=O)c1cnc(N2CCC3(CCCC(=O)NC3=O)C2)nc1` (stereo not drawn) [Example 32, tert-Butyl 2-(6,8-dioxo-2,7-diazaspiro [4.6]undecan-2-yl) pyrimidine-5-carboxylate] and `CC(C)(C)OC(=O)c1cnc(N2CCC3(CCCC(=O)NC3=O)C2)cn1` (stereo not drawn) [Example 35, tert-Butyl 5-(6,8-dioxo-2,7-diazaspiro[4.6]undecan-2-yl)pyrazine-2-carboxylate] cannot be ordered by Kd: ≥ 100 µM for the first, ≥ 100 µM for the second.

`COC(=O)c1ccc(CN2CCC3(CCCC(=O)NC3=O)C2)cc1` (stereo not drawn) [Example 34, Methyl 4-[(6,8-dioxo-2,7-diazaspiro[4.6]undecan-2-yl)methyl]benzoate] and `COC(=O)c1ccc(CN2CC3(CC(=O)N(C4CCC(=O)NC4=O)C3=O)C2)cc1` (stereo not drawn) [Example 54, Methyl 4-[[6-(2,6-dioxopiperidin-3-yl)-5,7-dioxo-2,6-diazaspiro[3.4]octan-2-yl]methyl]benzoate] cannot be ordered by Kd: ≥ 100 µM for the first, 50 to 100 µM for the second.

Compared with `COC(=O)c1cc2c(N3CCC4(CCCC(=O)NC4=O)C3)ncnc2n1C` (stereo not drawn) [Example 36, Methyl 4-(6,8-dioxo-2,7-diazaspiro[4.6]undecan-2-yl)-7-methyl-pyrrolo[2,3-d]pyrimidine-6-carboxylate], `COC(=O)c1cc2ncnc(N3CCC4(CCCC(=O)NC4=O)C3)c2s1` (stereo not drawn) [Example 43, Methyl 4-(6,8-dioxo-2,7-diazaspiro[4.6]undecan-2-yl)thieno[3,2-d]pyrimidine-6-carboxylate] is higher in Kd: < 50 µM for the first, 50 to 100 µM for the second.

`Cn1ccc2c(N3CCC4(CCCC(=O)NC4=O)C3)ncnc21` (stereo not drawn) [Example 37, 2-(7-methylpyrrolo[2,3-d]pyrimidin-4-yl)-2,7-diazaspiro[4.6]undecane-6,8-dione] and `Cn1ncc2c(N3CCC4(CCCC(=O)NC4=O)C3)ncnc21` (stereo not drawn) [Example 39, 2-(1-methylpyrazolo[3,4-d]pyrimidin-4-yl)-2,7-diazaspiro[4.6]undecane-6,8-dione] cannot be ordered by Kd: ≥ 100 µM for the first, ≥ 100 µM for the second.

`O=C1CCCC2(CCN(c3ccc(C(F)(F)F)cn3)C2)C(=O)N1` (stereo not drawn) [Example 38, 2-[5-(trifluoromethyl)-2-pyridyl]-2,7-diazaspiro[4.6]undecane-6,8-dione] and `CCOC(=O)c1cc(N2CCC3(CCCC(=O)NC3=O)C2)ncc1C(F)(F)F` (stereo not drawn) [Example 40, Ethyl 2-(6,8-dioxo-2,7-diazaspiro[4.6]undecan-2-yl)-5-(trifluoromethyl)pyridine-4-carboxylate] cannot be ordered by Kd: ≥ 100 µM for the first, ≥ 100 µM for the second.

`COc1cc(N2CCC3(CCCC(=O)NC3=O)C2)ccc1[N+](=O)[O-]` (stereo not drawn) [Example 41, 2-(3-Methoxy-4-nitrophenyl)-2,7-diazaspiro[4.6]undecane-6,8-dione] and `COc1cc([N+](=O)[O-])ccc1N1CCC2(CCCC(=O)NC2=O)C1` (stereo not drawn) [Example 42, 2-(2-Methoxy-4-nitrophenyl)-2,7-diazaspiro[4.6]undecane-6,8-dione] cannot be ordered by Kd: ≥ 100 µM for the first, 50 to 100 µM for the second.

`O=C1CCC(N2C(=O)CC3(CN(C(=O)c4ccccc4)C3)C2=O)C(=O)N1` (stereo not drawn) [Example 44-2, 2-Benzoyl-6-(2,6-dioxopiperidin-3-yl)-2,6-diazaspiro [3.4]octane-5,7-dione] and `O=C1CCC(N2C(=O)CC3(CN(C(=O)CNC(=O)c4ccccc4)C3)C2=O)C(=O)N1` (stereo not drawn) [Example 55, N-[2-[6-(2,6-Dioxopiperidin-3-yl)-5,7-dioxo-2,6-diazaspiro[3.4]octan-2-yl]-2-oxoethyl]benzamide] cannot be ordered by Kd: ≥ 100 µM for the first, ≥ 100 µM for the second.

`CC(C)(C)OC(=O)c1ccc(N2CC3(CC(=O)N(C4CCC(=O)NC4=O)C3=O)C2)nc1` (stereo not drawn) [Example 45, tert-Butyl 6-[6-(2,6-dioxopiperidin-3-yl)-5,7-dioxo-2,6-diazaspiro [3.4]octan-2-yl]pyridine-3-carboxylate] and `CC(C)(C)OC(=O)c1ccnc(N2CC3(CC(=O)N(C4CCC(=O)NC4=O)C3=O)C2)c1` (stereo not drawn) [Example 46, tert-Butyl 2-[6-(2,6-dioxopiperidin-3-yl)-5,7-dioxo-2,6-diazaspiro[3.4]octan-2-yl]pyridine-4-carboxylate] fall in the same range of Kd: 50 to 100 µM for the first, 50 to 100 µM for the second.

`CC(C)(C)OC(=O)c1cccc(N2CC3(CC(=O)N(C4CCC(=O)NC4=O)C3=O)C2)n1` (stereo not drawn) [Example 47, tert-Butyl 6-[6-(2,6-dioxopiperidin-3-yl)-5,7-dioxo-2,6-diazaspiro[3.4]octan-2-yl]pyridine-2-carboxylate] and `CC(C)(C)OC(=O)CN1CC2(CC(=O)N(C3CCC(=O)NC3=O)C2=O)C1` (stereo not drawn) [Example 48, tert-Butyl 2-[6-(2,6-dioxopiperidin-3-yl)-5,7-dioxo-2,6-diazaspiro[3.4]octan-2-yl]acetate] cannot be ordered by Kd: 50 to 100 µM for the first, ≥ 100 µM for the second.

`CC(C)(C)OC(=O)C(C)(C)N1CC2(CC(=O)N(C3CCC(=O)NC3=O)C2=O)C1` (stereo not drawn) [Example 49, tert-Butyl 2-[6-(2,6-dioxopiperidin-3-yl)-5,7-dioxo-2,6-diazaspiro[3.4]octan-2-yl]-2-methylpropanoate] and `CC(C)(C)OC(=O)NCCCCCN1CC2(CC(=O)N(C3CCC(=O)NC3=O)C2=O)C1` (stereo not drawn) [Example 50, tert-Butyl N-[5-[6-(2,6-dioxopiperidin-3-yl)-5,7-dioxo-2,6-diazaspiro[3.4]octan-2-yl]pentyl]carbamate] cannot be ordered by Kd: ≥ 100 µM for the first, ≥ 100 µM for the second.

`CC(C)(C)OC(=O)NCCCCCCCCN1CC2(CC(=O)N(C3CCC(=O)NC3=O)C2=O)C1` (stereo not drawn) [Example 51, tert-Butyl N-[8-[6-(2,6-dioxopiperidin-3-yl)-5,7-dioxo-2,6-diazaspiro[3.4]octan-2-yl]octyl]carbamate] and `COC(=O)c1cccc(CN2CC3(CC(=O)N(C4CCC(=O)NC4=O)C3=O)C2)c1` (stereo not drawn) [Example 53, Methyl 3-[[6-(2,6-dioxopiperidin-3-yl)-5,7-dioxo-2,6-diazaspiro[3.4]octan-2-yl]methyl]benzoate] cannot be ordered by Kd: ≥ 100 µM for the first, 50 to 100 µM for the second.

`CCOC(=O)c1ccc2nc(N3CC4(CC(=O)N(C5CCC(=O)NC5=O)C4=O)C3)sc2c1` (stereo not drawn) [Example 52, Ethyl 2-[6-(2,6-dioxopiperidin-3-yl)-5,7-dioxo-2,6-diazaspiro[3.4]octan-2-yl]-1,3-benzothiazole-6-carboxylate] and `CCOC(=O)c1ccc2nc(N3CC4(CC(=O)N(C5CCC(=O)NC5=O)C4)C3)sc2c1` (stereo not drawn) [Example 59, Ethyl 2-[6-(2,6-dioxo-3-piperidyl)-7-oxo-2,6-diazaspiro [3.4]octan-2-yl]-1,3-benzothiazole-6-carboxylate] cannot be ordered by Kd: < 50 µM for the first, < 50 µM for the second.

`CC(C)(C)OC(=O)c1ccc(N2CCCC3(CCCC(=O)NC3=O)CCC2)nc1` [Example 56, tert-Butyl 6-(1,3-dioxo-2,11-diazaspiro [6.7]tetradecan-11-yl) pyridine-3-carboxylate] and `CC(C)(C)OC(=O)c1cccc(C2CCCC(=O)NC2=O)c1` (stereo not drawn) [Example 60, tert-Butyl 3-(2,7-dioxoazepan-3-yl) benzoate] fall in the same range of Kd: 50 to 100 µM for the first, 50 to 100 µM for the second.

`O=C1CCCC(CNC(=O)c2ccccc2)C(=O)N1` (stereo not drawn) [Example 57, N-[(2,7-Dioxoazepan-3-yl)methyl]benzamide] and `O=C1CCCC(Oc2ccccc2[N+](=O)[O-])C(=O)N1` (stereo not drawn) [Example 66-1, 3-(2-Nitrophenoxy) azepane-2,7-dione] cannot be ordered by Kd: ≥ 100 µM for the first, ≥ 100 µM for the second.

`O=C1CCCC(c2ccc([N+](=O)[O-])cc2)C(=O)N1` (stereo not drawn) [Example 61, 3-(4-Nitrophenyl) azepane-2,7-dione] and `O=C1CCCC(c2cccc([N+](=O)[O-])c2)C(=O)N1` (stereo not drawn) [Example 62, 3-(3-Nitrophenyl) azepane-2,7-dione] cannot be ordered by Kd: ≥ 100 µM for the first, ≥ 100 µM for the second.

`CC(=O)Nc1ccc(Cl)c(C2CCCC(=O)NC2=O)c1` (stereo not drawn) [Example 65, N-[4-Chloro-3-(2,7-dioxoazepan-3-yl)phenyl]acetamide] and `CC(=O)Nc1cccc(C2CCCC(=O)NC2=O)c1` (stereo not drawn) [Example 71, N-[3-(2,7-Dioxoazepan-3-yl)phenyl]acetamide] cannot be ordered by Kd: ≥ 100 µM for the first, ≥ 100 µM for the second.

`Nc1ccccc1OC1CCCC(=O)NC1=O` (stereo not drawn) [Example 66-2, 3-(2-Aminophenoxy) azepane-2,7-dione] and `Nc1cccc(C2CCCC(=O)NC2=O)c1` (stereo not drawn) [Example 70, 3-(3-Aminophenyl) azepane-2,7-dione] cannot be ordered by Kd: ≥ 100 µM for the first, ≥ 100 µM for the second.

`CC(C)(C)OC(=O)COc1cccc(C(=O)NC2CCCC(=O)NC2=O)c1F` (stereo not drawn) [Example 67, tert-Butyl 2-[3-[(2,7-dioxoazepan-3-yl)carbamoyl]-2-fluorophenoxy]acetate] and `COc1c(OCC(=O)OC(C)(C)C)cccc1C(=O)NC1CCCC(=O)NC1=O` (stereo not drawn) [Example 68, tert-Butyl 2-[3-[(2,7-dioxoazepan-3-yl)carbamoyl]-2-methoxyphenoxy]acetate] cannot be ordered by Kd: ≥ 100 µM for the first, ≥ 100 µM for the second.

First: CC(C)(C)OC(=O)COc1cccc(C(=O)NC2CCCC(=O)NC2=O)n1 (stereo not drawn) [Example 69, tert-Butyl 2-(6-((2,7-dioxoazepan-3-yl)carbamoyl)pyridin-2-yl) oxyacetate]
Second: O=C1CCCC2(CCN(c3nc4ccc([N+](=O)[O-])cc4s3)C2)C(=O)N1 (stereo not drawn) [Example 72, 2-(6-Nitro-1,3-benzothiazol-2-yl)-2,7-diazaspiro [4.6]undecane-6,8-dione]
The Kd of the first is higher: 50 to 100 µM for the first, < 50 µM for the second.
